Patent US7297700B2, “Bicycloheteroaryl compounds as P2X7 modulators and uses thereof” (Renovis, Inc., priority 2005, dated 2007)

Each compound was assayed on IL-1β release from THP-1 cells (assay: IL-1β Release Assay (Alternate Method), THP-1 cells). Details: Homo sapiens; at 0.3 μM; THP-1 cells; read-out: IL-1β % inhibition.
Format: cell-based, human
Method in brief: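 IL-1β release, measured by ELISA, follows 45 min BzATP (250 uM final) stimulation of THP-1 cells given 30 min compound pretreatment. Cells were first primed 16 h with LPS and IFN-γ (100 ng/mL each), then 2 h with fresh LPS; inhibition expressed in percent after background correction.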
`O=C(CC12CC3CC(CC(C3)C1)C2)Nc1ncnc2c1CCNC2` [Compound 6, 2-Adamantan-1-yl-N-(5,6,7,8-tetrahydro-pyrido[3,4-d]pyrimidin-4-yl)-acetamide] gave an inhibition at 0.3 µM of 0 to 25%.

Same assay, conditions: at 0.3 μM; THP-1 cells
`O=C(CC12CC3CC(CC(C3)C1)C2)Nc1ncnc2c1CCN(C(=O)c1cc(F)ccc1F)C2` [Compound 279] was tested, and the IL-1β % inhibition was “++++ (compound exhibited 75% or greater inhibition at 0.3 μM)”. `NC(=O)COc1ccc(CN2CCc3c(ncnc3NC(=O)CC34CC5CC(CC(C5)C3)C4)C2)cc1` [Compound 91] was tested, and the IL-1β % inhibition was “+ (compound exhibited 0-25% inhibition at 0.3 μM)”. With `O=C(CC12CC3CC(CC(C3)C1)C2)Nc1ncnc2c1CCN(Cc1ccc(OC(F)F)cc1)C2` [Compound 78] the IL-1β % inhibition was “+ (compound exhibited 0-25% inhibition at 0.3 μM)”. In the case of `CC(C)(C)CC(=O)N1CCc2c(ncnc2NC(=O)CC23CC4CC(CC(C4)C2)C3)C1` [Compound 262], the IL-1β % inhibition was “+ (compound exhibited 0-25% inhibition at 0.3 μM)”. `O=C(CC12CC3CC(CC(C3)C1)C2)Nc1ncnc2c1CCN(C(=O)c1cccc(OC(F)(F)F)c1)C2` [Compound 269] was tested, and the IL-1β % inhibition was “++ (compound exhibited 25-50% inhibition at 0.3 μM)”. With `O=C(CC12CC3CC(CC(C3)C1)C2)Nc1ncnc2c1CCN(S(=O)(=O)c1c(F)cccc1F)C2` [Compound 206] the IL-1β % inhibition was “+ (compound exhibited 0-25% inhibition at 0.3 μM)”. `COc1ccc(CN2CCc3c(ncnc3NC(=O)CC34CC5CC(CC(C5)C3)C4)C2)cc1F` [Compound 119] was tested, and the IL-1β % inhibition was “++ (compound exhibited 25-50% inhibition at 0.3 μM)”. For `Cc1ccc(CN2CCc3c(ncnc3NC(=O)CC3CCCCCC3)C2)s1` [Compound 125], the IL-1β % inhibition was “+ (compound exhibited 0-25% inhibition at 0.3 μM)”. In the case of `O=C(CC12CC3CC(CC(C3)C1)C2)Nc1ncnc2c1CCN(C(=O)COc1ccc(Cl)cc1)C2` [Compound 264], the IL-1β % inhibition was “+++ (compound exhibited 50-75% inhibition at 0.3 μM)”. For `O=C(CC12CC3CC(CC(C3)C1)C2)Nc1ncnc2c1CCN(S(=O)(=O)c1cccc(F)c1)C2` [Compound 215], the IL-1β % inhibition was “+++ (compound exhibited 50-75% inhibition at 0.3 μM)”. In the case of `O=C(CC12CC3CC(CC(C3)C1)C2)Nc1ncnc2c1CCN(C(=O)c1cccc(Cl)c1)C2` [Compound 253], the IL-1β % inhibition was “+++ (compound exhibited 50-75% inhibition at 0.3 μM)”. With `O=C(CC12CC3CC(CC(C3)C1)C2)Nc1ncnc2c1CCN(C(=O)c1ccc3c(c1)CCO3)C2` [Compound 309] the IL-1β % inhibition was “++++ (compound exhibited 75% or greater inhibition at 0.3 μM)”. In the case of `COc1ccc(OC)c(CC(=O)N2CCc3c(ncnc3NC(=O)CC34CC5CC(CC(C5)C3)C4)C2)c1` [Compound 239], the IL-1β % inhibition was “++ (compound exhibited 25-50% inhibition at 0.3 μM)”. With `O=C(CC1CCCCCC1)Nc1ncnc2c1CCN(CCc1ccccc1)C2` [Compound 129] the IL-1β % inhibition was “+ (compound exhibited 0-25% inhibition at 0.3 μM)”. With `O=C(CC12CC3CC(CC(C3)C1)C2)Nc1ncnc2c1CCN(C(=O)C(c1ccccc1)c1ccccc1)C2` [Compound 236] the IL-1β % inhibition was “+++ (compound exhibited 50-75% inhibition at 0.3 μM)”. With `O=C(CC12CC3CC(CC(C3)C1)C2)Nc1ncnc2c1CCN(S(=O)(=O)c1ccc(Oc3ccccn3)cc1)C2` [Compound 172] the IL-1β % inhibition was “+++ (compound exhibited 50-75% inhibition at 0.3 μM)”. `Cc1nn(C)c(C)c1S(=O)(=O)N1CCc2c(ncnc2NC(=O)CC23CC4CC(CC(C4)C2)C3)C1` [Compound 198] was tested, and the IL-1β % inhibition was “+ (compound exhibited 0-25% inhibition at 0.3 μM)”. In the case of `COc1ccc(Oc2ccc(S(=O)(=O)N3CCc4c(ncnc4NC(=O)CC45CC6CC(CC(C6)C4)C5)C3)cc2)cc1` [Compound 175], the IL-1β % inhibition was “+++ (compound exhibited 50-75% inhibition at 0.3 μM)”. `COc1cc(OC)cc(C(=O)N2CCc3c(ncnc3NC(=O)CC34CC5CC(CC(C5)C3)C4)C2)c1` [Compound 246] was tested, and the IL-1β % inhibition was “++ (compound exhibited 25-50% inhibition at 0.3 μM)”. `COc1ccc(S(=O)(=O)N2CCc3c(ncnc3NC(=O)CC34CC5CC(CC(C5)C3)C4)C2)cc1` [Compound 149] was tested, and the IL-1β % inhibition was “+++ (compound exhibited 50-75% inhibition at 0.3 μM)”. `O=C(CC1CCCCCC1)Nc1ncnc2c1CCNC2` [Compound 12] was tested, and the IL-1β % inhibition was “+ (compound exhibited 0-25% inhibition at 0.3 μM)”. For `O=C(CC12CC3CC(CC(C3)C1)C2)Nc1ncnc2c1CCN(Cc1cc(F)ccc1C(F)(F)F)C2` [Compound 96], the IL-1β % inhibition was “+ (compound exhibited 0-25% inhibition at 0.3 μM)”. With `CC12CC3(C)CC(C)(C1)CC(CC(=O)Nc1ncnc4c1CCN(Cc1ccccc1)C4)(C2)C3` [Compound 344] the IL-1β % inhibition was “+ (compound exhibited 0-25% inhibition at 0.3 μM)”. For `O=C(CC12CC3CC(CC(C3)C1)C2)Nc1ncnc2c1CCN(Cc1cccc(OCCO)c1)C2` [Compound 101], the IL-1β % inhibition was “++ (compound exhibited 25-50% inhibition at 0.3 μM)”. `O=C(CC1CCCCCC1)Nc1ncnc2c1CCN(CC1CCCCC1)C2` [Compound 127] was tested, and the IL-1β % inhibition was “+ (compound exhibited 0-25% inhibition at 0.3 μM)”. With `O=C(c1ccc(Cl)cc1)N1CCc2c(ncnc2NC(=O)C23CC4CC(CC(C4)C2)C3)C1` [Compound 399] the IL-1β % inhibition was “+ (compound exhibited 0-25% inhibition at 0.3 μM)”. With `CC(C)(C)c1ccc(C(=O)N2CCc3c(ncnc3NC(=O)CC34CC5CC(CC(C5)C3)C4)C2)cc1` [Compound 301] the IL-1β % inhibition was “++++ (compound exhibited 75% or greater inhibition at 0.3 μM)”. With `O=C(CC12CC3CC(CC(C3)C1)C2)Nc1ncnc2c1CCN(C(=O)Cc1ccc(F)cc1)C2` [Compound 241] the IL-1β % inhibition was “+++ (compound exhibited 50-75% inhibition at 0.3 μM)”.

Same assay, conditions: at 0.3 μM; THP-1 cells, BzATP-stimulated
`O=C(Cc1ccc(Cl)cc1)N1CCc2c(ncnc2NC(=O)C23CC4CC(CC(C4)C2)C3)C1` [Compound 437] was tested, and the IL-1β % inhibition was “+ (compound exhibited 0-25% inhibition at 0.3 μM)”. For `COc1ccc(CN2CCc3c(ncnc3NC(=O)C34CC5CC(CC(C5)C3)C4)C2)cc1OCc1ccccc1` [Compound 592], the IL-1β % inhibition was “++++ (compound exhibited 75% or greater inhibition at 0.3 μM)”. For `COc1cccc(CC(=O)N2CCc3c(ncnc3NC(=O)C34CC5CC(CC(C5)C3)C4)C2)c1` [Compound 433], the IL-1β % inhibition was “++ (compound exhibited 25-50% inhibition at 0.3 μM)”. In the case of `CCOc1cccc(CN2CCc3c(ncnc3NC(=O)C34CC5CC(CC(C5)C3)C4)C2)c1` [Compound 625], the IL-1β % inhibition was “+ (compound exhibited 0-25% inhibition at 0.3 μM)”. In the case of `Cc1nn(C)c(Cl)c1S(=O)(=O)N1CCc2c(ncnc2NC(=O)C23CC4CC(CC(C4)C2)C3)C1` [Compound 495], the IL-1β % inhibition was “++ (compound exhibited 25-50% inhibition at 0.3 μM)”. In the case of `O=C(Nc1ncnc2c1CCN(CC(c1ccccc1)c1ccccc1)C2)C12CC3CC(CC(C3)C1)C2` [Compound 553], the IL-1β % inhibition was “++ (compound exhibited 25-50% inhibition at 0.3 μM)”. `O=C(Nc1ncnc2c1CCN(S(=O)(=O)c1cc(Cl)ccc1Cl)C2)C12CC3CC(CC(C3)C1)C2` [Compound 538] was tested, and the IL-1β % inhibition was “++ (compound exhibited 25-50% inhibition at 0.3 μM)”. With `O=C(Nc1ncnc2c1CCN(Cc1cc(Br)ccc1F)C2)C12CC3CC(CC(C3)C1)C2` [Compound 618] the IL-1β % inhibition was “+ (compound exhibited 0-25% inhibition at 0.3 μM)”. `O=C(Nc1ncnc2c1CCN(S(=O)(=O)Cc1cccc(C(F)(F)F)c1)C2)C12CC3CC(CC(C3)C1)C2` [Compound 520] was tested, and the IL-1β % inhibition was “++ (compound exhibited 25-50% inhibition at 0.3 μM)”. For `O=C(Nc1ncnc2c1CCN(S(=O)(=O)c1ccc(Oc3ccccc3)cc1)C2)C12CC3CC(CC(C3)C1)C2` [Compound 524], the IL-1β % inhibition was “++++ (compound exhibited 75% or greater inhibition at 0.3 μM)”.
